Laboratory results from ChEMBL document CHEMBL1201862, “PubChem BioAssay data set” (2004).
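Five concentrations, 48 hours, 96-well plates. GI50 is the concentration that inhibits growth by half.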 Calls of active or inactive are those of the source. Cut-off read from the data, not from the text of the source: active = GI50 up to about 1.1 µM and inactive = higher.

Columns and labels:
Assay in all cases: NCI-60 cell line screen, 48 h
SK-MEL-28 = test system: SK-MEL-28
NCI-H23 = test system: NCI-H23
A498 = test system: A498
786-0 = test system: 786-0
NCI-H460 = test system: NCI-H460
NCI-H522 = test system: NCI-H522
SNB-75 = test system: SNB-75
SK-MEL-2 = test system: SK-MEL-2
HCC 2998 = test system: HCC 2998
HCT-15 = test system: HCT-15
SN12C = test system: SN12C
M14 = test system: M14
HCT-116 = test system: HCT-116
UO-31 = test system: UO-31
PC-3 = test system: PC-3
SK-MEL-5 = test system: SK-MEL-5
OVCAR-8 = test system: OVCAR-8
OVCAR-4 = test system: OVCAR-4
SW-620 = test system: SW-620
NCI-H226 = test system: NCI-H226
UACC-257 = test system: UACC-257
IGROV-1 = test system: IGROV-1
TK-10 = test system: TK-10
SR = test system: SR
BT-549 = test system: BT-549
SF-295 = test system: SF-295
MDA-MB-231 = test system: MDA-MB-231
NCI/ADR-RES = test system: NCI/ADR-RES
CCRF-CEM = test system: CCRF-CEM
SF-268 = test system: SF-268
KM12 = test system: KM12
OVCAR-3 = test system: OVCAR-3
HL-60 = test system: HL-60
T47D = test system: T47D
A549 = test system: A549
SF-539 = test system: SF-539
CAKI-1 = test system: CAKI-1
MOLT-4 = test system: MOLT-4
COLO 205 = test system: COLO 205
HOP-62 = test system: HOP-62
MDA-N = test system: MDA-N
Hs-578T = test system: Hs-578T
OVCAR-5 = test system: OVCAR-5
DU-145 = test system: DU-145
ACHN = test system: ACHN
K562 = test system: K562
U-251 = test system: U-251
EKVX = test system: EKVX
HT-29 = test system: HT-29
Malme-3M = test system: Malme-3M
SK-OV-3 = test system: SK-OV-3
MCF7 = test system: MCF7
UACC-62 = test system: UACC-62
SNB-19 = test system: SNB-19
LOX IMVI = test system: LOX IMVI
RPMI-8226 = test system: RPMI-8226
HOP-92 = test system: HOP-92
RXF 393 = test system: RXF 393
MDA-MB-435 = test system: MDA-MB-435

Measured: GI50

COC(=O)NC1(NC(=O)OC)NC(=O)c2cc(OC)c(OC)c(OC)c2N1
8.49 µM: HCT-15
active: SK-MEL-2 0.0132 µM | A549 < 0.01 µM | U-251 < 0.01 µM
inactive: SK-MEL-28 84.3 µM | NCI-H23 32.7 µM | A498 32.2 µM | 786-0 39 µM | NCI-H460 17.2 µM | NCI-H522 6.98 µM | SNB-75 13.7 µM | HCC 2998 9.14 µM | SN12C 41.6 µM | M14 21.8 µM | HCT-116 26.1 µM | UO-31 46.2 µM | PC-3 12.4 µM | SK-MEL-5 11 µM | OVCAR-8 64.4 µM | OVCAR-4 > 100 µM | SW-620 18.2 µM | NCI-H226 31.1 µM | UACC-257 > 100 µM | IGROV-1 53.1 µM | TK-10 38 µM | SR 17.3 µM | BT-549 22.4 µM | SF-295 12.4 µM | MDA-MB-231 36.2 µM | NCI/ADR-RES 15.1 µM | CCRF-CEM 82 µM | SF-268 28.1 µM | KM12 7.19 µM | OVCAR-3 54.1 µM | HL-60 8.15 µM | T47D 43.5 µM | SF-539 23.6 µM | CAKI-1 63.8 µM | MOLT-4 63.2 µM | COLO 205 18.7 µM | HOP-62 21.1 µM | MDA-N 3.15 µM | Hs-578T 13.3 µM | OVCAR-5 > 100 µM | DU-145 32 µM | ACHN 86.5 µM | K562 12.3 µM | EKVX > 100 µM | HT-29 36.9 µM | Malme-3M 1.33 µM | SK-OV-3 2.62 µM | MCF7 30.3 µM | UACC-62 30.1 µM | SNB-19 44.9 µM

COc1cc2c3c(n(C)c(=O)c2cc1OC)-c1cc2c(cc1/C3=C/CCCCBr)OCO2
inactive: SK-MEL-28 > 100 µM | NCI-H23 24.8 µM | A498 19.8 µM | 786-0 17.1 µM | NCI-H460 17.8 µM | NCI-H522 4.16 µM | SNB-75 11.6 µM | SK-MEL-2 > 100 µM | M14 32.9 µM | UO-31 71 µM | LOX IMVI 62.8 µM | PC-3 > 100 µM | SK-MEL-5 54 µM | OVCAR-8 > 100 µM | SW-620 16.1 µM | UACC-257 > 100 µM | IGROV-1 6.56 µM | TK-10 > 100 µM | SR 1.57 µM | BT-549 > 100 µM | SF-295 4.5 µM | MDA-MB-231 > 100 µM | NCI/ADR-RES > 100 µM | CCRF-CEM 1.7 µM | SF-268 37.4 µM | KM12 > 100 µM | HL-60 30.3 µM | T47D 3.76 µM | RPMI-8226 2.54 µM | A549 > 100 µM | CAKI-1 5.86 µM | MOLT-4 4.51 µM | HOP-92 57.7 µM | RXF 393 > 100 µM | COLO 205 > 100 µM | MDA-N > 100 µM | Hs-578T > 100 µM | OVCAR-5 > 100 µM | ACHN 4.4 µM | K562 35.6 µM | U-251 40.9 µM | EKVX > 100 µM | HT-29 > 100 µM | Malme-3M > 100 µM | SK-OV-3 > 100 µM | MCF7 4.73 µM | SNB-19 > 100 µM
> 100 µM: HCT-15

CCC1=C(C)C(=O)N/C1=C\c1[nH]c(C)c([C@H](C)CCN)c1C
14.8 µM: HCT-15
inactive: SK-MEL-28 17.3 µM | NCI-H23 13.3 µM | A498 18.6 µM | 786-0 14.7 µM | NCI-H460 20.3 µM | NCI-H522 11.6 µM | SNB-75 10.1 µM | SK-MEL-2 18.7 µM | SN12C 16 µM | M14 15.8 µM | HCT-116 14.5 µM | UO-31 15.8 µM | LOX IMVI 15.3 µM | SK-MEL-5 17.2 µM | OVCAR-8 15.3 µM | OVCAR-4 12.8 µM | SW-620 16.6 µM | NCI-H226 17.1 µM | IGROV-1 17 µM | SR 50.6 µM | BT-549 16.3 µM | SF-295 16.5 µM | MDA-MB-231 17.4 µM | NCI/ADR-RES 20 µM | CCRF-CEM 23 µM | SF-268 16.2 µM | KM12 15.7 µM | OVCAR-3 16 µM | HL-60 10 µM | T47D 9.98 µM | MDA-MB-435 15.3 µM | RPMI-8226 25.6 µM | A549 16.1 µM | CAKI-1 17.1 µM | MOLT-4 34 µM | HOP-92 14.6 µM | COLO 205 16.4 µM | HOP-62 16.6 µM | MDA-N 15.3 µM | Hs-578T 11.9 µM | OVCAR-5 17.5 µM | DU-145 16.9 µM | ACHN 18.6 µM | K562 46.6 µM | U-251 15.1 µM | EKVX 14.4 µM | HT-29 15.7 µM | Malme-3M 18.7 µM | SK-OV-3 16.9 µM | MCF7 15.5 µM | UACC-62 17.3 µM
active: SF-539 0.0944 µM
